This is an account of results in US20230151003A1, “COMPOUNDS AND METHODS OF USE” (Exelixis, Inc., priority 2020, published 2023).

One test concerns the target KDR (Homo sapiens, UniProt P35968). Nature of the test: KDR autophosphorylation ELISA in HUVEC cells. Conditions: Table 3 Cellular Activities, VEGF165-stimulated, phospho-KDR ELISA. Type of test: cell-based. Further details: endogenous in cells; host or cells: HUVEC (Lonza #C2519A). The method in brief: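 Inhibition of VEGF165-induced KDR phosphorylation was determined in serum-starved HUVEC after 1 h compound pretreatment and 5 min stimulation with 100 ng/mL VEGF165. Lysate phospho-KDR was measured by ELISA; IC50 values came from a 4-parameter logistic fit of 8-point curves.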

The next test deals with T1, Mer (Homo sapiens, UniProt Q12866).
T1 construct: host or cells: 293A cells (Thermo Fisher #R70507)
T1 sequence (Q12866 21-999): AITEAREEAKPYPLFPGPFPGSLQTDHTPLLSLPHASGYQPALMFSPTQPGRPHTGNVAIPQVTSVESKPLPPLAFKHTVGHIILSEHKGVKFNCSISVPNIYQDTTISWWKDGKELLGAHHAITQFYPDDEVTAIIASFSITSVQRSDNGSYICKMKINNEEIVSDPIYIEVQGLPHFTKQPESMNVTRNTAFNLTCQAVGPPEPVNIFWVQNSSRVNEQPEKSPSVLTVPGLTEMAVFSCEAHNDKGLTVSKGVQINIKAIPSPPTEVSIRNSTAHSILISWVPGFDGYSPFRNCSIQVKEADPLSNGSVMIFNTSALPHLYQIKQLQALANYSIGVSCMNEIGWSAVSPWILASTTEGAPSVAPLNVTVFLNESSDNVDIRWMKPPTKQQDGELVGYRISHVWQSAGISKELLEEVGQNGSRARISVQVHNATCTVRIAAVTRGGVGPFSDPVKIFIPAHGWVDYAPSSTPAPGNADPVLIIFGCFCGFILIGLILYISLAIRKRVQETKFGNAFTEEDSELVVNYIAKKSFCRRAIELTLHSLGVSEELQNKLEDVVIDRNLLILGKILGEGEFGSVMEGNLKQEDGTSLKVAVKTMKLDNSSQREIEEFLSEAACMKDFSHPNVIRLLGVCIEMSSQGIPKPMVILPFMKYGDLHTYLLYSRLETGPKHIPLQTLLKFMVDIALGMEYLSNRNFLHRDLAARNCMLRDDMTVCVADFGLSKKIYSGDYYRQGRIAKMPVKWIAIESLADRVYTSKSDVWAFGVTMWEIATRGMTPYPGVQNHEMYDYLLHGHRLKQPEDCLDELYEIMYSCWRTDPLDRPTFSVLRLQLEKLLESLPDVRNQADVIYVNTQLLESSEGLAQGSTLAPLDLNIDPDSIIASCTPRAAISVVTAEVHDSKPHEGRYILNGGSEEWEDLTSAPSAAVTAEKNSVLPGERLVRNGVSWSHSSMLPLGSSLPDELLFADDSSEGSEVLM
Nature of the test: Mer autophosphorylation ELISA in transient transfected 293A cells. Type of test: cell-based. To be noted: Table 3 Cellular Activities; MERTK-transfected 293A cells, phospho-Mer ELISA. The procedure, abridged:
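293A cells transiently transfected with human MERTK DNA, replated after 24 h, then treated 1 h with 8-point compound dilutions in serum-free medium (0.3% DMSO). Lysates assayed by phospho-Mer sandwich ELISA against phospho-Mer standard; DMSO = 100%, reference inhibitor = 0% activity; IC50 by 4-parameter logistic fit.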

Molecules are shown by their SMILES. Where a name gives a salt, the structure may show the parent alone.

Chain of KDR (P35968 20-1356): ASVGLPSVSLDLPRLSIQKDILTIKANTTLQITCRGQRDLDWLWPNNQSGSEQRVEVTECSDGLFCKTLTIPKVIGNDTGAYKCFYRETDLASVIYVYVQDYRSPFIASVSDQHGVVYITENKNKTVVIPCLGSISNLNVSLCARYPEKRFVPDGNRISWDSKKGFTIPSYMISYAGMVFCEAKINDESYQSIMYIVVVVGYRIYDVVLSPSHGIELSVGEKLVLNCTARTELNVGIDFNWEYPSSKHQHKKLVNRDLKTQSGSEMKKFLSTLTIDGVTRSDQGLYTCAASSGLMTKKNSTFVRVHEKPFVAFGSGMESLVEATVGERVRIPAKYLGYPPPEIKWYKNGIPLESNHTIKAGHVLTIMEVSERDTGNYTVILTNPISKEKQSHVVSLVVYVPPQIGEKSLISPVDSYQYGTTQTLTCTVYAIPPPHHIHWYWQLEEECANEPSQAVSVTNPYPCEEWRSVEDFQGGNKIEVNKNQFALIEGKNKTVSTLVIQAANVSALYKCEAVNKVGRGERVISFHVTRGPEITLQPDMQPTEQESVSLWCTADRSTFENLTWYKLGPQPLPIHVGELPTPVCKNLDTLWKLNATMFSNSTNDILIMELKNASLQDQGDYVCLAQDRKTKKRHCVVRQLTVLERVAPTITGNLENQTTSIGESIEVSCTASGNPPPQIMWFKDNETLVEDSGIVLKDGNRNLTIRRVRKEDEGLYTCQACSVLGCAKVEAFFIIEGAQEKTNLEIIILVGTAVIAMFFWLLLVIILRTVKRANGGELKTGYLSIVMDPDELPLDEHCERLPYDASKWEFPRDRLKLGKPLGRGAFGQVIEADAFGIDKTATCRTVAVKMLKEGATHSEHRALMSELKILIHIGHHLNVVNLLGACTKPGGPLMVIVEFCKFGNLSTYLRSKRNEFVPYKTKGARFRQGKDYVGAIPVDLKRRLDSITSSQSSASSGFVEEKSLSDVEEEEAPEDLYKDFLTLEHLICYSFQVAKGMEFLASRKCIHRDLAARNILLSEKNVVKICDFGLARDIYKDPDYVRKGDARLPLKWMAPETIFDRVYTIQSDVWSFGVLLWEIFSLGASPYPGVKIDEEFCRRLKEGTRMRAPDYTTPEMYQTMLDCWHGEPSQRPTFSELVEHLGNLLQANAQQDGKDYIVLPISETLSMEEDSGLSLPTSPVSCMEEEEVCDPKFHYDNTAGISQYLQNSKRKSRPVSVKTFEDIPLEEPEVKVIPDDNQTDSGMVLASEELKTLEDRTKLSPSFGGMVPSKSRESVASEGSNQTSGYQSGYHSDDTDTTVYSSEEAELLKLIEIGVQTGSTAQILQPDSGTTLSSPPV

Turning to `COc1cnc2c(Oc3ccc(NC(=O)c4c(C)nc(C)c(-c5ccc(F)cn5)c4O)cc3F)ccnc2c1` [Compound 217, N-[3-Fluoro-4-[(7-methoxy-1,5-naphthyridin-4-yl)oxy]phenyl]-5-(5-fluoropyridin-2-yl)-4-hydroxy-2,6-dimethylpyridine-3-carboxamide], the IC50 on KDR and against Mer was no more than 100 nM each time.
With `COc1cc2c(Oc3ccc(NC(=O)c4c(C)ncc(-c5ccccn5)c4O)cc3F)ccnc2cn1` [Compound 223, N-[3-Fluoro-4-[(6-methoxy-1,7-naphthyridin-4-yl)oxy]phenyl]-4-hydroxy-2-methyl-5-pyridin-2-ylpyridine-3-carboxamide], the IC50 at KDR and against Mer was no more than 100 nM each time.
As for `COc1cc2nccc(Oc3ccc(NC(=O)c4cnc(C)c(-c5ccco5)c4O)cc3)c2cc1OC` [Compound 258, N-[4-(6,7-Dimethoxyquinolin-4-yl)oxyphenyl]-5-(furan-2-yl)-4-hydroxy-6-methylpyridine-3-carboxamide], the IC50 at KDR and against Mer was no more than 100 nM each time.
Consider `COc1cc2nccc(Oc3ccc(NC(=O)c4c5n(cc(-c6ccoc6)c4=O)CCOC5)cc3)c2nc1OC` [Compound 310, N-[4-[(6,7-Dimethoxy-1,5-naphthyridin-4-yl)oxy]phenyl]-7-(furan-3-yl)-8-oxo-3,4-dihydro-1H-pyrido[2,1-c][1,4]oxazine-9-carboxamide], for which the results for the IC50 on KDR and against Mer were 300 to 1000 nM and no more than 100 nM, respectively.
The like results for `COc1cc2nccc(Oc3ccc(NC(=O)c4c(C)n(C)c(C)c(-c5cc6ccccc6o5)c4=O)cc3F)c2nc1OC` [Compound 261, 5-(1-Benzofuran-2-yl)-N-[4-[(6,7-dimethoxy-1,5-naphthyridin-4-yl)oxy]-3-fluorophenyl]-1,2,6-trimethyl-4-oxopyridine-3-carboxamide] were, in that order, 300 to 1000 nM and 100 to 300 nM.
For `COc1cc2nccc(Oc3ccc(NC(=O)c4c(C)n(C)cc(-c5ccc(F)cn5)c4=O)cc3F)c2nc1OC` [Compound 71, N-[4-[(6,7-Dimethoxy-1,5-naphthyridin-4-yl)oxy]-3-fluorophenyl]-5-(5-fluoropyridin-2-yl)-1,2-dimethyl-4-oxopyridine-3-carboxamide], the half-inhibitory concentration (IC50) against KDR was 300 to 1000 nM; on Mer, no more than 100 nM.
The like results for `COc1cc2nccc(Oc3ccc(NC(=O)c4c(C)ncc(-c5cccnc5)c4O)cc3F)c2nc1OC` [Compound 228, N-[4-[(6,7-Dimethoxy-1,5-naphthyridin-4-yl)oxy]-3-fluorophenyl]-4-hydroxy-2-methyl-5-pyridin-3-ylpyridine-3-carboxamide] were, in that order, no more than 100 nM and no more than 100 nM.
Take `COc1cc2nccc(Oc3ccc(NC(=O)c4cccn(-c5ccncc5)c4=O)cc3F)c2nc1OC` [Compound 229, N-[4-[(6,7-Dimethoxy-1,5-naphthyridin-4-yl)oxy]-3-fluorophenyl]-2-oxo-1-pyridin-4-ylpyridine-3-carboxamide]: the 50% inhibitory concentration (IC50) against KDR and at Mer was no more than 100 nM each time.
For `COc1cc2nccc(Oc3ccc(NC(=O)c4cnc(C)c(-c5ccco5)c4O)cc3)c2nc1OC` [Compound 255, N-[4-[(6,7-Dimethoxy-1,5-naphthyridin-4-yl)oxy]phenyl]-5-(furan-2-yl)-4-hydroxy-6-methylpyridine-3-carboxamide], the half-maximal inhibitory concentration (IC50) on KDR and against Mer was no more than 100 nM throughout.
On to `CCOc1ccn(-c2ccc(F)cn2)c(=O)c1C(=O)Nc1ccc(Oc2ccnc3cc(OC)c(OC)nc23)cc1` [Compound 244, N-[4-[(6,7-Dimethoxy-1,5-naphthyridin-4-yl)oxy]phenyl]-4-ethoxy-1-(5-fluoropyridin-2-yl)-2-oxopyridine-3-carboxamide], for which the results for the IC50 against KDR and on Mer were 300 to 1000 nM and no more than 100 nM, respectively.
For `COc1cc2nccc(Oc3ccc(NC(=O)c4c(C)cc(C)n(-c5ccc(F)cn5)c4=O)cc3)c2nc1OC` [Compound 245, N-[4-[(6,7-Dimethoxy-1,5-naphthyridin-4-yl)oxy]phenyl]-1-(5-fluoropyridin-2-yl)-4,6-dimethyl-2-oxopyridine-3-carboxamide], the 50% inhibitory concentration (IC50) on KDR and against Mer was no more than 100 nM in each case.
For `COc1cc2nccc(Oc3ccc(NC(=O)c4ccc(C)n(-c5ccnc(C)c5)c4=O)cc3F)c2nc1OC` [Compound 230, N-[4-[(6,7-Dimethoxy-1,5-naphthyridin-4-yl)oxy]-3-fluorophenyl]-6-methyl-1-(2-methylpyridin-4-yl)-2-oxopyridine-3-carboxamide], the IC50 on KDR and against Mer was no more than 100 nM in each case.
For the compound `COc1cnc2c(Oc3ccc(NC(=O)c4ccc(C)n(-c5ccc(F)cn5)c4=O)cc3F)ccnc2c1` [Compound 45, N-[3-Fluoro-4-[(7-methoxy-1,5-naphthyridin-4-yl)oxy]phenyl]-1-(5-fluoropyridin-2-yl)-6-methyl-2-oxopyridine-3-carboxamide], the IC50 at KDR and on Mer was no more than 100 nM in each case.
On to `COc1cc2nccc(Oc3ccc(NC(=O)c4cccn(-c5ccnc(O)c5)c4=O)cc3F)c2nc1OC` [Compound 248, N-[4-[(6,7-Dimethoxy-1,5-naphthyridin-4-yl)oxy]-3-fluorophenyl]-1-(2-hydroxypyridin-4-yl)-2-oxopyridine-3-carboxamide hydrochloride], for which the IC50 at KDR and against Mer was 300 to 1000 nM in each case.
Turning to `COc1cc2nccc(Oc3ccc(NC(=O)c4c(C)nc(C)c(-c5ccc(F)cn5)c4O)cc3F)c2nc1OC` [Compound 218, N-[4-[(6,7-Dimethoxy-1,5-naphthyridin-4-yl)oxy]-3-fluorophenyl]-5-(5-fluoropyridin-2-yl)-4-hydroxy-2,6-dimethylpyridine-3-carboxamide], the IC50 against KDR and against Mer was no more than 100 nM throughout.
Regarding `COc1cc2nccc(Oc3ccc(NC(=O)c4ccc(C)n(-c5ccc(F)c(C)n5)c4=O)cc3F)c2nc1OC` [Compound 227, N-[4-[(6,7-Dimethoxy-1,5-naphthyridin-4-yl)oxy]-3-fluorophenyl]-1-(5-fluoro-6-methylpyridin-2-yl)-6-methyl-2-oxopyridine-3-carboxamide hydrochloride], the 50% inhibitory concentration (IC50) at KDR and against Mer was no more than 100 nM each time.
Regarding `COCCOc1cc2nccc(Oc3ccc(NC(=O)c4ccc(C)n(-c5ccc(F)cn5)c4=O)cc3F)c2nc1OC` [Compound 50, N-[3-Fluoro-4-[[6-methoxy-7-(2-methoxyethoxy)-1,5-naphthyridin-4-yl]oxy]phenyl]-1-(5-fluoropyridin-2-yl)-6-methyl-2-oxopyridine-3-carboxamide], the IC50 at KDR and at Mer was no more than 100 nM throughout.
Consider `COc1cc2nccc(Oc3ccc(NC(=O)c4c5n(cc(-c6cccs6)c4=O)CCOC5)cc3F)c2nc1OC` [Compound 309, N-[4-[(6,7-Dimethoxy-1,5-naphthyridin-4-yl)oxy]-3-fluorophenyl]-8-oxo-7-thiophen-2-yl-3,4-dihydro-1H-pyrido[2,1-c][1,4]oxazine-9-carboxamide], for which the IC50 at KDR was 300 to 1000 nM; against Mer, no more than 100 nM.
Consider `COc1cc2nccc(Oc3ccc(NC(=O)c4cccn(-c5cc[n+]([O-])cc5)c4=O)cc3F)c2nc1OC` [Compound 247, N-[4-[(6,7-Dimethoxy-1,5-naphthyridin-4-yl)oxy]-3-fluorophenyl]-1-(1-oxidopyridin-1-ium-4-yl)-2-oxopyridine-3-carboxamide hydrochloride], for which the values for the IC50 against KDR and on Mer were 100 to 300 nM and no more than 100 nM, respectively.
In the case of `COc1cnc2c(Oc3ccc(NC(=O)c4c(C)n(C)cc(-c5ccc(F)cn5)c4=O)cc3F)ccnc2c1` [Compound 73, N-[3-Fluoro-4-[(7-methoxy-1,5-naphthyridin-4-yl)oxy]phenyl]-5-(5-fluoropyridin-2-yl)-1,2-dimethyl-4-oxopyridine-3-carboxamide], the IC50 at KDR was 300 to 1000 nM; at Mer, no more than 100 nM.
